Columns and labels:
[1] = target: T1, PfDHODH (Plasmodium falciparum, UniProt Q08210); assay: PfDHODH inhibition assay (DCIP end-point, 384-well); type: biochemical; details: recombinant tag-free PfDHODH, 20 min, serial dilutions 0.0007-22.7 µM; read-out: IC50 DHODH Pf
T1 construct: encoding amino acid residues 158 to 569 fused to a His6-SUMO tag in its N-terminus; His6-SUMO (N, cleaved yes); made in house; host or cells: E. coli BL21 Star (DE3), pETSUMO/PfDHODH
Experimental: The screening of 40,400 compounds was conducted in 384-well plates by adapting the end-point assay reported before. First, 1 µL of 200 µM compound was transferred into 384-well plates using a Benchtop Multi-Pipetter EDR-384SR (Biotech Co., Ltd., Tokyo, Japan). […] Next, 38 µL of assay mix (100 mM HEPES-NaOH pH 7.5, 5% (v/v) glycerol, 150 mM NaCl, 0.05% (v/v) Triton X-100, 15 µM decylubiquinone (dUQ, Sigma), 120 µM 2,6-dichlorophenolindophenol (DCIP, Sigma), and 20 nM PfDHODH) were dispensed into all wells and mixed at 600 rpm for 1 min by a MixMate®® (Eppendorf). The reaction was started by the addition of 5 µL of 1.8 mM L-DHO (Sigma) as the substrate and mixed as described above for 20 s. The absorbance at 600 nm was recorded using a SpectraMax®® Paradigm®® Multi-Mode Microplate Reader (Molecular Devices) before (t0) and after 20 min (t20) incubation at room temperature. The readings at t0 were subtracted from t20, and PfDHODH inhibition was calculated as the inhibition relative to the negative and positive controls in a single-point assay. Hits were defined as compounds inhibiting more than 50% of PfDHODH activity at 4.5 µM. The quality of the screening system was evaluated by calculating statistical parameters: Z′-factor, S/N, S/B, SW, and CV, as previously reported. The IC50 values of the hit compounds were determined using the same assay system containing serial dilutions of each compound in triplicates (22.7, 6.8, 2.27, 0.68, 0.227, 0.068, 0.023, 0.007, 0.002, 0.0007 µM) using GraphPad Prism 8.0 software (GraphPad Software Inc., San Diego, CA, USA).

[2] = target: T2, HsDHODH (Homo sapiens, UniProt Q02127); assay: HsDHODH counter-assay; type: biochemical; details: purified recombinant HsDHODH, tested at 4.5 µM; read-out: IC50 DHODH Hs
T2 construct: made in house
T2 sequence (Q02127 whole entry): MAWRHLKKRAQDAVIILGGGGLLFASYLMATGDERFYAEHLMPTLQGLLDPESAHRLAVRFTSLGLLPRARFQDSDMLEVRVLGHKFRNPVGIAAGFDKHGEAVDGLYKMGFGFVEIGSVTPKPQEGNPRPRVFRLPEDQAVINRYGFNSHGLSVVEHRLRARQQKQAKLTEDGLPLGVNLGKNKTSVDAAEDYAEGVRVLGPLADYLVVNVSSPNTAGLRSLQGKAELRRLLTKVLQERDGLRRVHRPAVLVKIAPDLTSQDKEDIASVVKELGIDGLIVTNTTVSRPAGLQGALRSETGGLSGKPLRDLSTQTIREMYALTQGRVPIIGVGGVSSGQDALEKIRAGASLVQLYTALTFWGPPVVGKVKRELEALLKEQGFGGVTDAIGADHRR
Experimental: Selected hit compounds from PfDHODH screening were tested for potential inhibition against HsDHODH at 4.5 µM. The HsDHODH used in this study was purified as previously reported. The HsDHODH assay was performed similarly to that for PfDHODH, but in an assay mix consisting of 50 mM Tris-HCl pH 8.0, 0.1% (v/v) Triton X-100, 2 mM potassium cyanide (KCN, Wako), 60 µM dUQ, and 120 µM DCIP, with the reaction started by the addition of 200 µM L-DHO (final concentration) in triplicate. For this assay, DMSO was used as a negative control and 10 µM of lapachol was used as a positive control (100% inhibition). The relative inhibition was calculated as described above.

[3] = target: mammalian mitochondrial complexes I–III (Bos taurus, UniProt P00157+P03887+P17694+P42026); assay: NADH-cytochrome c reductase (complexes I–III) activity assay; type: biochemical; details: bovine heart mitochondria, range tested 0.0007 to 22.7 µM; read-out: IC50 Mammalian Mitochondrial CI–III
Experimental: (§1) Bovine heart mitochondria were prepared as previously described. The NADH-cytochrome c reductase (complexes I–III) and succinate-cytochrome c reductase (complexes II–III) activities were assayed in 384-well plates following an established protocol with small modifications. Complex I–III activity was assayed in a reaction mix containing 50 mM phosphate buffer pH 7.4, 2 mM KCN, 200 µM cytochrome c (cytochrome c from horse heart, Nacalai tesque), and 15 µg/mL mitochondria. Plates containing 1 µL serial dilutions of PfDHODH inhibitors were prepared and mixed with 38 µL of the reaction mix, as described above. The reaction was started by the addition of 5 µL of 2.6 mM NADH, and the assay was performed as described for PfDHODH, but at 550 nm and with 15 min of incubation. Complex II–III activity was assayed similarly to complex I–III activity but with 100 µM cytochrome c and 25 µg/mL mitochondria, and the reaction was started by 10 mM succinate. For both assays, DMSO and 5 µM ascochlorin were used as negative and positive controls, respectively. Assays were performed in triplicate.

[4] = target: mammalian mitochondrial complexes II–III (Bos taurus, UniProt P00157+P35720+Q3T189+Q95123); assay: succinate-cytochrome c reductase (complexes II–III) activity assay; type: biochemical; details: bovine heart mitochondria, range tested 0.0007 to 22.7 µM; read-out: IC50 Mammalian Mitochondrial CII–III
Experimental: as §1

[5] = test system: P. falciparum 3D7; assay: In vitro antimalarial assay (PfLDH/diaphorase); type: cell-based; details: Plasmodium falciparum, growth inhibition, 72 h, 0.0003 to 10 µM, read-out: EC50 Pf3D7
Experimental: This assay was conducted using human red blood cells (RBC) following the guidelines of the ethics committee of Nagasaki University (permission no. 19). Human RBC was obtained from the Japanese Red Cross Society. The P. falciparum 3D7 strain was cultured in 2% hematocrit type O human RBC in RPMI-1640 medium (Gibco) supplemented with 23.8 mM sodium bicarbonate (Wako), 50 mg/L hypoxanthine (Wako), 25 mg/L gentamycin (Sigma), and 0.5% (w/v) AlbuMAX®® II (Gibco) under a 5% O2, 5% CO2, and 90% N2 atmosphere at 37 °C. Parasites were synchronized with 5% (w/v) D-sorbitol (Wako).
Synchronized ring-stage parasites at 0.3% parasitemia and 2% hematocrit were cultured in a 384-well plate at 25 µL with test compounds at a final concentration in the range of 0.0003 to 10 µM with a fixed DMSO concentration of 0.4% (v/v). Parasite growth was monitored by the diaphorase-coupled P. falciparum lactate dehydrogenase (PfLDH) assay, as previously described. After 72 h, 70 µL of the assay solution (150 mM lithium L-lactate (Wako), 0.05 mg/mL 3-acetylpyridine adenine dinucleotide (Oriental Yeast Co., Ltd., Tokyo, Japan), 0.2 mg/mL nitro blue tetrazolium (Wako), 1 unit/mL diaphorase, and 100 mM Tris-HCl pH 8.0) were mixed with the parasite culture and incubated at room temperature for 40 min, and the generated nitro blue formazan was measured at 650 nm using a SpectraMax®® Paradigm®® Multi-Mode Microplate Reader. […] The EC50 was calculated using GraphPad Prism 8.0 software from the mean of quadruplets values.

[6] = Cytotoxicity assay, HDF (Cell Counting Kit-8); type: cell-based; details: human dermal fibroblast (HDF) cells, normal human dermal fibroblasts
Experimental: (§2) Human dermal fibroblast cells (HDF, Zenbio, Inc., Durham, NC, USA) were cultured in Dulbecco’s Modified Eagle Medium/Nutrient Mixture F-12 medium (DMEM/F12, Gibco), human pancreatic carcinoma cells (PANC-1, DS Pharma Biomedical, Co., Ltd.) were cultured in DMEM (Gibco), and human colorectal adenocarcinoma cells (DLD-1, Taiho Pharmaceutical Company) were cultured in RPMI-1640 medium (FUJIFILM Wako Pure Chemicals). The culture mediums were supplemented with 10% (v/v) heat-inactivated fetal bovine serum (Gibco) and the cells were maintained at 37 °C under 5% CO2.
(§3) HDF, PANC-1, and DLD-1 were seeded at 2.5 × 10^4 cells/well on a 96-well plate and incubated at 37 °C under 5% CO2 overnight. The cells were then washed with PBS and the medium was replaced with 99 µL of fresh media. Then, 1 µL of the compounds or DMSO was added to the respective wells. As controls, wells containing 1% (v/v) DMSO in column 1 and wells containing only the culture medium in column 12 were used as the negative and positive controls, respectively. After 48 h of incubation, the cells were washed with PBS, and 99 µL of fresh media was replaced, followed by the addition of 10 µL of Cell Counting Kit-8 (Dojindo) to each well. After 3 h of incubation, the absorbance was measured at 450 nm using a SpectraMax®® Paradigm®® Multi-Mode microplate Reader. The calculation of cell viability in the test well was based on the absorbance of control wells according to the manufacturer’s protocol. The mean of quadruplet values was used to calculate the CC50 using GraphPad Prism 8.0 software.

[7] = Cytotoxicity assay, PANC-1 (Cell Counting Kit-8); type: cell-based; details: PANC-1 human pancreatic carcinoma cells
Experimental: as §2, §3

[8] = Cytotoxicity assay, DLD-1 (Cell Counting Kit-8); type: cell-based; details: DLD-1 human colorectal adenocarcinoma cells
Experimental: as §2, §3

T1 sequence (Q08210 158-569): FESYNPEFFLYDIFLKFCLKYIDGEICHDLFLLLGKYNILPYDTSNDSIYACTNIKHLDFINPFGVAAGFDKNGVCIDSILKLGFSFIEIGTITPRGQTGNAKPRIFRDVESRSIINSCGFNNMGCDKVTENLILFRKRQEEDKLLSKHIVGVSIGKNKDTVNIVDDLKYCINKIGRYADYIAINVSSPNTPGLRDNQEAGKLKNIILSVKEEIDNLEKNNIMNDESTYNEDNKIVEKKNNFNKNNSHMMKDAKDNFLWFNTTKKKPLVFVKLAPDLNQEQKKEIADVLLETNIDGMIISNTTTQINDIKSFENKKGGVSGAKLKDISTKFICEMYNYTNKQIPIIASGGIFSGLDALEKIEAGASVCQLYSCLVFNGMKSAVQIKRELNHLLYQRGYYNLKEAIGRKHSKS

N=C1Sc2cc(-c3cccc4ccccc34)ccc2C2=NCCCN12 [Compound 2]
IC50 [1]: 0.85 ± 0.05 µM | IC50 [2]: > 4.5 µM | IC50 [3]: 13.9 ± 2.14 µM | IC50 [4]: > 22.7 µM | EC50 [5]: > 10 µM | EC50 at 48 h [6]: > 10 µM | EC50 at 48 h [7]: > 10 µM | EC50 at 48 h [8]: > 10 µM

N=C1Sc2ccc(-c3ccccc3)cc2C2=NCCCN12 [Compound 9]
IC50 [1]: 0.76 ± 0.08 µM | IC50 [2]: > 4.5 µM | IC50 [3]: > 22.7 µM | IC50 [4]: > 22.7 µM | EC50 [5]: > 10 µM | EC50 at 48 h [6]: > 10 µM | EC50 at 48 h [7]: > 10 µM | EC50 at 48 h [8]: > 10 µM

N=C1Sc2cc3ccccc3cc2C2=NCCCN12 [Compound 11, 2,3,4,6-tetrahydro-7-thia-1,5-diazatetraphen-6-imine]
IC50 [1]: 6.42 ± 0.09 µM | IC50 [2]: > 4.5 µM | IC50 [3]: > 22.7 µM | IC50 [4]: > 22.7 µM | EC50 [5]: > 10 µM | EC50 at 48 h [6]: > 10 µM | EC50 at 48 h [7]: > 10 µM | EC50 at 48 h [8]: > 10 µM

N=C1Sc2cc(-c3ccc(C(N)=O)cc3)ccc2C2=NCCCN12 [Compound 16]
IC50 [1]: 1.82 ± 0.08 µM | IC50 [2]: > 4.5 µM | IC50 [3]: > 22.7 µM | IC50 [4]: > 22.7 µM | EC50 [5]: > 10 µM | EC50 at 48 h [6]: > 10 µM | EC50 at 48 h [7]: > 10 µM | EC50 at 48 h [8]: > 10 µM

CC(=O)Nc1cccc(-c2ccc3c(c2)SC(=N)N2CCCN=C32)c1 [Compound 23]
IC50 [1]: 1.85 ± 0.19 µM | IC50 [2]: > 4.5 µM | IC50 [3]: > 22.7 µM | IC50 [4]: > 22.7 µM | EC50 [5]: > 10 µM | EC50 at 48 h [6]: > 10 µM | EC50 at 48 h [7]: > 10 µM | EC50 at 48 h [8]: > 10 µM

CS(=O)(=O)Nc1cccc(-c2ccc3c(c2)SC(=N)N2CCCN=C32)c1 [Compound 24]
IC50 [1]: 1.94 ± 0.07 µM | IC50 [2]: > 4.5 µM | IC50 [3]: > 22.7 µM | IC50 [4]: > 22.7 µM | EC50 [5]: > 10 µM | EC50 at 48 h [6]: > 10 µM | EC50 at 48 h [7]: > 10 µM | EC50 at 48 h [8]: > 10 µM

CC(=O)NCCCCCOc1cccc(-c2ccc3c(c2)SC(=N)N2CCCN=C32)c1 [Compound 26]
IC50 [1]: 3.49 ± 0.21 µM | IC50 [2]: > 4.5 µM | IC50 [3]: > 22.7 µM | IC50 [4]: > 22.7 µM | EC50 [5]: > 10 µM | EC50 at 48 h [6]: > 10 µM | EC50 at 48 h [7]: > 10 µM | EC50 at 48 h [8]: > 10 µM

CC(=O)Nc1ccc2c(c1)SN1CCCN=C21 [Compound 28]
IC50 [1]: 18.5 ± 0.4 µM | IC50 [2]: > 4.5 µM | IC50 [3]: > 22.7 µM | IC50 [4]: > 22.7 µM | EC50 [5]: > 10 µM | EC50 at 48 h [6]: > 10 µM | EC50 at 48 h [7]: > 10 µM | EC50 at 48 h [8]: > 10 µM

FC(F)(F)c1ccc2c(c1)SN1CCCN=C21 [Compound 29]
IC50 [1]: 9.71 ± 0.29 µM | IC50 [2]: > 4.5 µM | IC50 [3]: > 22.7 µM | IC50 [4]: > 22.7 µM | EC50 [5]: > 10 µM | EC50 at 48 h [6]: > 10 µM | EC50 at 48 h [7]: > 10 µM | EC50 at 48 h [8]: > 10 µM

c1cncc(-c2ccc3c(c2)SN2CCCN=C32)c1 [Compound 35]
IC50 [1]: 1.48 ± 0.07 µM | IC50 [2]: > 4.5 µM | IC50 [3]: > 22.7 µM | IC50 [4]: > 22.7 µM | EC50 [5]: > 10 µM | EC50 at 48 h [6]: > 10 µM | EC50 at 48 h [7]: > 10 µM | EC50 at 48 h [8]: > 10 µM

Oc1ccc(-c2ccc3c(c2)SN2CCCN=C32)cc1 [Compound 38]
IC50 [1]: 1.81 ± 0.01 µM | IC50 [2]: > 4.5 µM | IC50 [3]: > 22.7 µM | IC50 [4]: > 22.7 µM | EC50 [5]: > 10 µM | EC50 at 48 h [6]: > 10 µM | EC50 at 48 h [7]: > 10 µM | EC50 at 48 h [8]: > 10 µM

Oc1cccc(-c2ccc3c(c2)SN2CCCN=C32)c1 [Compound 41]
IC50 [1]: 1.44 ± 0.05 µM | IC50 [2]: > 4.5 µM | IC50 [3]: > 22.7 µM | IC50 [4]: > 22.7 µM | EC50 [5]: > 10 µM | EC50 at 48 h [6]: > 10 µM | EC50 at 48 h [7]: > 10 µM | EC50 at 48 h [8]: > 10 µM

From article PMC8268581, “Identification of 3,4-Dihydro-2H,6H-pyrimido[1,2-c][1,3]benzothiazin-6-imine Derivatives as Novel Selective Inhibitors of Plasmodium falciparum Dihydroorotate Dehydrogenase” (International Journal of Molecular Sciences, 2021)
